Laboratory results published in US5733867A, “1, 5-benzodiazepine derivatives” (Glaxo Wellcome SpA, priority 1993, dated 1998).

Assays:
CCK-A receptor = experiment: CCK-receptor binding, CCK-A (Pancreas Assay)
Procedure: (§1) The greater affinity of the compounds of the invention for the CCK-B receptor over the CCK-A receptor has also been established using the CCK receptor binding assays described by G Dal Forno et al., J. Pharmcol. Exp & Ther. 261, 1056-1063, 1992.
(§2) The binding affinity of the compounds of the invention for the CCK-A receptor (Pancreas Assay) and CCK-B receptor (guinea pig cortex assay) was determined using the procedure of G Dal Forno et al J. Pharmacol. Exp & Ther. 261--1056-1063. The pKi values determined with respresentative compounds of invention were as follows: […]

CCK-B receptor = target: T1, CCK-B receptor (Cavia porcellus, UniProt H0VZC5); experiment: CCK-receptor binding, CCK-B (guinea pig cortex assay); conditions: read-out: pKi CCK-B (converted)
T1 construct: CCK-B receptor (guinea pig cortex assay); from tissue; host or cells: guinea pig cortex
T1 sequence (H0VZC5 1-426): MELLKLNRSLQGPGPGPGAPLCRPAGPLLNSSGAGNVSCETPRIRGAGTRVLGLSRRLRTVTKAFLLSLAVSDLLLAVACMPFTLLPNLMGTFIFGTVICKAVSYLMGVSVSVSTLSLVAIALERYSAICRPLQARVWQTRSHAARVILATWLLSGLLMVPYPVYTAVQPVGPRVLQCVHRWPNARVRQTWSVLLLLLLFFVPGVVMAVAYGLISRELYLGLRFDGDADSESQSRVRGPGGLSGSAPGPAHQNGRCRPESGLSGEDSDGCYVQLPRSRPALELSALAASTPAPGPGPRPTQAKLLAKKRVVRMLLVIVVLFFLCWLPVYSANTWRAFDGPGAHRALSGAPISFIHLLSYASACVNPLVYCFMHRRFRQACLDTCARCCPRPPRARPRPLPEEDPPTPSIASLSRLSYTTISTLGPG
Procedure: as §1, §2

SMILES | pKi CCK-A (CCK-A receptor) | Ki (CCK-B receptor) [nM]
CCOC(=O)CCCOc1ccc(NC(=O)NC2C(=O)N(CC34CC5CC(CC(C5)C3)C4)c3ccccc3N(c3ccccc3)C2=O)cc1 (single isomer, unassigned; (+)) [Example 2, (+)N-[1-(1-Adamantylmethyl)-2,4-dioxo-5-phenyl-2,3,4,5-tetrahydro-1H-1,5-benzodiazepin-3yl]-N'-[4-(3-(ethoxycarbonyl)propyl-1-oxo)phenyl]urea] | < 5.0 | 5.25
O=C(Nc1cccc(C(=O)OCCN2CCOCC2)c1)NC1C(=O)N(CC23CC4CC(CC(C4)C2)C3)c2ccccc2N(c2ccccc2)C1=O (single isomer, unassigned; (+)) [Example 4, (+)N-[1-(1-Adamantylmethyl)-2,4-dioxo-5-phenyl-2,3,4,5-tetrahydro-1H-5-benzodiazepin-3-yl]-N'-[3-[2-(4-Morpholino)ethoxycarbonyl]phenyl]urea] | 6.47 | 0.562
O=C(Nc1cccc(CN2CCOCC2)c1)NC1C(=O)N(CC23CC4CC(CC(C4)C2)C3)c2ccccc2N(c2ccccc2)C1=O (single isomer, unassigned; (+)) [Example 1, (+)N-[1-(1-Adamantylmethyl)-2,4-dioxo-5-phenyl-2,3,4,5-tetrahydro-1H-1,5-benzodiazepin-3-yl]-N'-(3-(4-morpholinomethyl)phenyl]-urea] | 4.70 | 
O=C(Nc1cccc(NCC(O)CO)c1)NC1C(=O)N(CC23CC4CC(CC(C4)C2)C3)c2ccccc2N(c2ccccc2)C1=O (single isomer, unassigned; (+)) [Example 5, (+)N-[1-(1-Adamantylmethyl)-2,4-dioxo-5-phenyl-2,3,4,5-tetrahydro-1H-1,5-benzodiazepin-3-yl]N'-[3-(2,3-dihydroxypropylamino)phenyl]urea] | 5.13 | 0.676
O=C(O)CCCOc1ccc(NC(=O)NC2C(=O)N(CC34CC5CC(CC(C5)C3)C4)c3ccccc3N(c3ccccc3)C2=O)cc1 (single isomer, unassigned; (+)) [Example 3, (+)N-[1-(1-Adamantylmethyl)-2,4-dioxo-5-phenyl-2,3,4,5-tetrahydro-1H-1,5benzodiazepin-3-yl]-N'-[4-(4-oxobutanoic acid)phenyl]urea] | < 5.0 | 3.8
O=CNc1cccc(NC(=O)NC2C(=O)N(CC34CC5CC(CC(C5)C3)C4)c3ccccc3N(c3ccccc3)C2=O)c1 (racemic) [Example 6, N-[1-(1-Adamantylmethyl)-2,4-dioxo-5-phenyl-2,3,4,5-tetrahydro-1H-1,5-benzodiazepin-3-yl]-N'-(3-formylaminophenyl)urea] | 5.95 | 0.955
CC(=O)Nc1cccc(NC(=O)NC2C(=O)N(CC34CC5CC(CC(C5)C3)C4)c3ccccc3N(c3ccccc3)C2=O)c1 (racemic) [Example 7, N-[1-(1-Adamantylmethyl)-2,4-dioxo-5-phenyl-2,3,4,5-tetrahydro-1H-1,5-benzodiazepin-3-yl]-N'-(3-acetamidophenyl)urea] | 5.82 | 1.32
